Values of other authors in patent US20070224637A1, “Oxidative protection of lipid layer biosensors” (priority 2006, published 2007).

## O=S([O-])O.[Na+] [Sodium bisulfite]
  Solubility In oil: No
  Solubility In water: Yes

## O=S([O-])[O-].[Ca+2] [Calcium sulfite]
  Solubility In alcohol: Yes
  Solubility In water: Yes

## Tocopherols
  Solubility In oil: Yes

## CCCCCCCCCCCCCCCC(=O)OC[C@H](O)[C@H]1OC(=O)C(O)=C1O [Ascorbyl palmitate]
  Solubility In alcohol: Yes
  Solubility In oil: Yes
  Solubility In water: Yes

## Cc1c(O)cc2c(c1C)O[C@](C)(CCC[C@H](C)CCC[C@H](C)CCCC(C)C)CC2 [γ-tocopherol (syn), γ-tocopherol]
  Solubility In alcohol: Yes
  Solubility In oil: Yes
  Solubility In water: No

## O=C(O)c1cc(O)c(O)c(O)c1 [Gallic acid]
  Solubility In alcohol: Yes
  Solubility In oil: Yes
  Solubility In water: Yes

## O=S([O-])S(=O)(=O)[O-].[Na+].[Na+] [Sodium metabisulfite]
  Solubility In alcohol: Slightly
  Solubility In water: Yes

## Cc1cc2c(C(C)C)c(O)c(O)c(C=O)c2c(O)c1-c1c(C)cc2c(C(C)C)c(O)c(O)c(C=O)c2c1O [Gossypol]
  Solubility In alcohol: Yes
  Solubility In oil: Yes
  Solubility In water: No

## O[C@H](CS)[C@H](O)CS (racemic) [Dithiothreitol]
  Solubility In alcohol: Yes
  Solubility In oil: No
  Solubility In water: Yes

## O=C(OC[C@H]1O[C@@H](OC(=O)c2cc(O)c(O)c(OC(=O)c3cc(O)c(O)c(O)c3)c2)[C@H](OC(=O)c2cc(O)c(O)c(OC(=O)c3cc(O)c(O)c(O)c3)c2)[C@@H](OC(=O)c2cc(O)c(O)c(OC(=O)c3cc(O)c(O)c(O)c3)c2)[C@@H]1OC(=O)c1cc(O)c(O)c(OC(=O)c2cc(O)c(O)c(O)c2)c1)c1cc(O)c(O)c(OC(=O)c2cc(O)c(O)c(O)c2)c1 [Tannic acid]
  Solubility In water: Yes

## CCCOC(=O)c1cc(O)c(O)c(O)c1 [Propyl gallate]
  Solubility In alcohol: Yes
  Solubility In oil: Slightly
  Solubility In water: Slightly

## D-tocopherol [D-tocopherol (syn)]
  Solubility In alcohol: Yes
  Solubility In oil: Yes
  Solubility In water: No

## O=S([O-])O.O=S([O-])O.[Ca+2] [Calcium bisulfite]
  Solubility In water: Yes

## CC(Cc1ccc(O)c(O)c1)C(C)Cc1ccc(O)c(O)c1 (stereo not shown) [Nordihydroguaiaretic acid]
  Solubility In alcohol: Yes
  Solubility In oil: Yes
  Solubility In water: No

## CCOc1ccc2c(c1)C(C)=CC(C)(C)N2 [Ethoxyquin]
  Solubility In oil: Yes

## O=S([O-])[O-].[Na+].[Na+] [Sodium sulfite]
  Solubility In alcohol: No
  Solubility In water: Yes

## COc1ccc(O)c(C(C)(C)C)c1 [Butylated hydroxyanisole]
  Solubility In alcohol: Yes
  Solubility In oil: Yes
  Solubility In water: No

## OC[C@@H](O)[C@@H](O)[C@H](O)[C@@H](O)CS [Thiosorbitol]
  Solubility In alcohol: Yes
  Solubility In oil: Yes
  Solubility In water: Yes

## CCCCCCCCCCCCOC(=O)c1cc(O)c(O)c(O)c1 [Dodecyl gallate]
  Solubility In alcohol: Yes
  Solubility In oil: Yes
  Solubility In water: No

## CC(=O)N[C@@H](CS)C(=O)O [Acetylcysteine]
  Solubility In alcohol: Yes
  Solubility In oil: No
  Solubility In water: Yes

## O=S([O-])S(=O)(=O)[O-].[K+].[K+] [Potassium metabisulfite]
  Solubility In alcohol: No
  Solubility In oil: No
  Solubility In water: Yes

## OCC(O)CS (stereo not shown) [Monothioglycerol]
  Solubility In alcohol: Yes
  Solubility In water: Yes

## O=S=O [Sulfur dioxide]
  Solubility In alcohol: Yes
  Solubility In oil: Yes
  Solubility In water: Yes

## Oc1ccc(O)cc1 [Hydroquinone]
  Solubility In alcohol: Yes
  Solubility In oil: Yes
  Solubility In water: Yes

## NC(N)=S [Thiourea]
  Solubility In alcohol: Yes
  Solubility In oil: No
  Solubility In water: Yes

## O=[PH2]O [Hypophosphorus acid]
  Solubility In water: Yes

## Cc1cc(C(C)(C)C)c(O)c(C(C)(C)C)c1 [Butylated hydroxytoluene]
  Solubility In alcohol: Yes
  Solubility In oil: Yes
  Solubility In water: No

## N[C@@H](CS)C(=O)O [Cysteine]
  Solubility In alcohol: Yes
  Solubility In oil: No
  Solubility In water: Yes

## CCCCCCCCOC(=O)c1cc(O)c(O)c(O)c1 [Octyl gallate]
  Solubility In alcohol: Yes
  Solubility In oil: Yes
  Solubility In water: No

## CC(C)(C)c1cc(CO)cc(C(C)(C)C)c1O [4-Hydroxymethyl-2,6-di-tert-butylphenol]
  Solubility In alcohol: Yes
  Solubility In oil: Yes
  Solubility In water: Yes

## CCOC(=O)c1cc(O)c(O)c(O)c1 [Ethyl gallate]
  Solubility In alcohol: Yes
  Solubility In oil: No
  Solubility In water: Slightly

## Cc1c(C)c2c(c(C)c1O)CC[C@@](C)(CCC[C@H](C)CCC[C@H](C)CCCC(C)C)O2 [d-α-tocopherol (syn), d-α-tocopherol]
  Solubility In alcohol: Yes
  Solubility In oil: Yes
  Solubility In water: No

## N[C@@H](CCC(=O)N[C@@H](CS)C(=O)NCC(=O)O)C(=O)O [Glutathione]
  Solubility In water: Yes
